Data published in US8637499B2, “Benzoxazepines as inhibitors of PI3K/mTOR and methods of their use and manufacture” (Exelixis, Inc., priority 2009, dated 2014).

Legend:
[1] = target: mTORC1 (mTOR/GbL/Raptor) (Homo sapiens, UniProt P42345); assay: mTOR/GbL/Raptor (mTORC1) ELISA Assay; assay type: biochemical; conditions: 0.2 nM mTORC1, 10 μM ATP, 50 nM NHis-tagged 4E-BP1; phosphorylation of 4E-BP1; read-out: IC50
Outline: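 mTORC1 (0.2 nM) phosphorylated NHis-tagged 4E-BP1 (50 nM) with 10 μM ATP in 20 mM Hepes pH 7.2, 10 mM MnCl2, for 120 min at ambient temperature. Product was captured on Ni-chelate plates and detected with anti-phospho-4E-BP1 plus HRP secondary antibody by chemiluminescence.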

[2] = target: PI3Kα (Homo sapiens, UniProt P42336); assay: PI3K Biochemical Assays (ATP consumption, luciferase-luciferin chemiluminescence); conditions: PI3Kα 1.5 nM, ATP 1 μM, PIP2 10 μM; percent of ATP consumed
Outline: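 Kinase activity read as percent ATP consumed via luciferase-luciferin chemiluminescence. 1.5 nM enzyme, 1 μM ATP, 10 μM PIP2 in 50 mM Tris pH 7.5, 1 mM EGTA, 10 mM MgCl2, 1 mM DTT, 0.03% CHAPS; ~2 h at ambient temperature, ATP consumption kept to 40-60%.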

Chain of PI3Kα (P42336 whole entry): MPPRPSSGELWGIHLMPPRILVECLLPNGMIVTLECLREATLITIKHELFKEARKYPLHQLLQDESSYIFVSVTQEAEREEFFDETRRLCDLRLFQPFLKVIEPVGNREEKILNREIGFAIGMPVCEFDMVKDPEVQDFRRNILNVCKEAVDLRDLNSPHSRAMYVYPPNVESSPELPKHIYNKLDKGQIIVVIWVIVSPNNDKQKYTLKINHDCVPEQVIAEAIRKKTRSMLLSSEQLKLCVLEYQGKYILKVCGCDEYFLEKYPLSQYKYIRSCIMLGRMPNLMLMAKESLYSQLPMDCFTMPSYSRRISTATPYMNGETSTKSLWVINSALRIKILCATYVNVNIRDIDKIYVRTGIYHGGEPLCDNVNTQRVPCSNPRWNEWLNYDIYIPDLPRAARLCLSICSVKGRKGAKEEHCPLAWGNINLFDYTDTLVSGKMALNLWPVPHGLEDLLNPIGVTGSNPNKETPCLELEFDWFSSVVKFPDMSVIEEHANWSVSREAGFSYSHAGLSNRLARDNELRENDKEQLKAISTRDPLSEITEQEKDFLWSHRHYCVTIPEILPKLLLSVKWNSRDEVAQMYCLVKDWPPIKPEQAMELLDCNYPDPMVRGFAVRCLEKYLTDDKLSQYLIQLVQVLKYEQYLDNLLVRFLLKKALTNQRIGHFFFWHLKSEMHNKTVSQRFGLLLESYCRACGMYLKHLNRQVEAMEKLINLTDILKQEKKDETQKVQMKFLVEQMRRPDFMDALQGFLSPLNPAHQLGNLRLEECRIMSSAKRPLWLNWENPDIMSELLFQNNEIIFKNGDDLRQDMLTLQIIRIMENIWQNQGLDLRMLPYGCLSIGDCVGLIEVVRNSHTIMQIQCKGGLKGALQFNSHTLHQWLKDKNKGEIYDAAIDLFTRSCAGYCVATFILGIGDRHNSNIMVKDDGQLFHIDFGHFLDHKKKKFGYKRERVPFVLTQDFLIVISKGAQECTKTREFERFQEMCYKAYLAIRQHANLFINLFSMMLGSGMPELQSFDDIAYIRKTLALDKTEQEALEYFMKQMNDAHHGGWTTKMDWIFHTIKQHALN
Chain of PI3Kα (P27986 whole entry partner): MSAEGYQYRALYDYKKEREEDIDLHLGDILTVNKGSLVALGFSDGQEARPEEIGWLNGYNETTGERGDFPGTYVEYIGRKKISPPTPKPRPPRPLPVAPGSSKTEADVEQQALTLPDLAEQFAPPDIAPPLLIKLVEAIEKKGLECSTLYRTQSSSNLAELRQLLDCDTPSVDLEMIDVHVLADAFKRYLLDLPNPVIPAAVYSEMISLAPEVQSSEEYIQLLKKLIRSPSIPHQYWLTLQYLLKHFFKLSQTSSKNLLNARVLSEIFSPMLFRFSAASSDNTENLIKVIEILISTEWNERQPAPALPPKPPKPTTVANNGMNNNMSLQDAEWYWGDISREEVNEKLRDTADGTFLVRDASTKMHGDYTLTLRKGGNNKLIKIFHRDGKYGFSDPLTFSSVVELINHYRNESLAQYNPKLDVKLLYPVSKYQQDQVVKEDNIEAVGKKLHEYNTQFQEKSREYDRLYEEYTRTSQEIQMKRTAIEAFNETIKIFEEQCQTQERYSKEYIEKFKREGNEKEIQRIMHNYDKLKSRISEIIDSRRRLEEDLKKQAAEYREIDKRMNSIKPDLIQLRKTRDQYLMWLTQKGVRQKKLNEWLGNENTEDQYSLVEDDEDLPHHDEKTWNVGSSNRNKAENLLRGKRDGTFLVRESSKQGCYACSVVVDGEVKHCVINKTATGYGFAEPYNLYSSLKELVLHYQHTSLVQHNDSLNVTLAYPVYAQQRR

Compound	IC50 [1]	IC50 [2]
COC(=O)Nc1nc2ccc(-c3ccc4c(c3)CN(C(=O)N3CCC(C)(O)CC3)CCO4)cc2[nH]1 [Compound 24, methyl (6-{4-[(4-hydroxy-4-methylpiperidin-1-yl)carbonyl]-2,3,4,5-tetrahydro-1,4-benzoxazepin-7-yl}-1H-benzimidazol-2-yl)carbamate]	0.25 to 0.7 µM	0.2 to 0.5 µM
Cc1nc2ccc(-c3ccc4c(c3)CN(C(=O)N3CCCCC3c3ccc(F)c(C)c3)CCO4)cc2[nH]1 (stereo not drawn) [Compound 118, 4-{[2-(4-fluoro-3-methylphenyl)piperidin-1-yl]carbonyl}-7-(2-methyl-1H-benzimidazol-6-yl)-2,3,4,5-tetrahydro-1,4-benzoxazepine]	≤ 0.05 µM	0.075 to 0.2 µM
Cc1nc2ccc(-c3ccc4c(c3)CN(C(=O)N3CCCC3C)CCO4)cc2[nH]1 (stereo not drawn) [Compound 99, 7-(2-methyl-1H-benzimidazol-6-yl)-4-[(2-methylpyrrolidin-1-yl)carbonyl]-2,3,4,5-tetrahydro-1,4-benzoxazepine]	0.7 to 2.6 µM	0.5 to 1 µM
CCOC(=O)[C@H]1CCCN(C(=O)N2CCOc3ccc(-c4ccc5nc(C)[nH]c5c4)cc3C2)C1 [Compound 74, ethyl (3S)-1-{[7-(2-methyl-1H-benzimidazol-6-yl)-2,3-dihydro-1,4-benzoxazepin-4(5H)-yl]carbonyl}piperidine-3-carboxylate]	0.25 to 0.7 µM	1 to 3 µM
COC(=O)Nc1nc2ccc(-c3ccc4c(c3)CN(C(=O)N3CCC(=O)CC3c3cccc(F)c3)CCO4)cc2[nH]1 (stereo not drawn) [Compound 11, methyl [6-(4-{[2-(3-fluorophenyl)-4-oxopiperidin-1-yl]carbonyl}-2,3,4,5-tetrahydro-1,4-benzoxazepin-7-yl)-1H-benzimidazol-2-yl]carbamate]	0.05 to 0.25 µM	≤ 0.075 µM
Cc1nc2ccc(-c3ccc4c(c3)CN(C(=O)N(C)CCc3ccccc3)CCO4)cc2[nH]1 [Compound 93, N-methyl-7-(2-methyl-1H-benzimidazol-6-yl)-N-(2-phenylethyl)-2,3-dihydro-1,4-benzoxazepine-4(5H)-carboxamide]	0.7 to 2.6 µM	1 to 3 µM
O=C1CCN(C(=O)N2CCOc3ccc(-c4ccc(-c5ncc[nH]5)cc4)cc3C2)[C@@H](c2ccc(F)cc2)C1 [Compound 56, (2R)-2-(4-fluorophenyl)-1-({7-[4-(1H-imidazol-2-yl)phenyl]-2,3-dihydro-1,4-benzoxazepin-4(5H)-yl}carbonyl)piperidin-4-one]	≤ 0.05 µM	≤ 0.075 µM
COC(=O)Nc1nc2ccc(-c3ccc4c(c3)CN(C(=O)N3CCC(O)(c5cccc(C(F)(F)F)c5)CC3)CCO4)cc2[nH]1 [Compound 18, methyl {6-[4-({4-hydroxy-4-[3-(trifluoromethyl)phenyl]piperidin-1-yl}carbonyl)-2,3,4,5-tetrahydro-1,4-benzoxazepin-7-yl]-1H-benzimidazol-2-yl}carbamate]	0.05 to 0.25 µM	≤ 0.075 µM

Other lines, results leading:

IC50 [1]	IC50 [2]	Compound
0.05 to 0.25 µM	0.5 to 1 µM	Cc1nc2ccc(-c3ccc4c(c3)CN(C(=O)N3CCC(F)(F)CC3c3ccccc3)CCO4)cc2[nH]1 (stereo not drawn) [Compound 138, 4-[(4,4-difluoro-2-phenylpiperidin-1-yl)carbonyl]-7-(2-methyl-1H-benzimidazol-6-yl)-2,3,4,5-tetrahydro-1,4-benzoxazepine]
0.05 to 0.25 µM	0.2 to 0.5 µM	CCC1CCC(C)N(C(=O)N2CCOc3ccc(-c4ccc5nc(C)[nH]c5c4)cc3C2)C1 (stereo not drawn) [Compound 76, 4-[(5-ethyl-2-methylpiperidin-1-yl)carbonyl]-7-(2-methyl-1H-benzimidazol-6-yl)-2,3,4,5-tetrahydro-1,4-benzoxazepine]
0.25 to 0.7 µM	1 to 3 µM	CC(=O)Nc1ncc(-c2ccc3c(c2)CN(C(=O)N2CCC(C)CC2)CCO3)s1 [Compound 5, N-(5-{4-[(4-methylpiperidin-1-yl)carbonyl]-2,3,4,5-tetrahydro-1,4-benzoxazepin-7-yl}-1,3-thiazol-2-yl)acetamide]
≤ 0.05 µM	≤ 0.075 µM	COC(=O)Nc1nc2ncc(-c3ccc4c(c3)CN(C(=O)N3CCC(CCF)CC3)CCO4)cc2[nH]1 [Compound 35, methyl [6-(4-{[4-(2-fluoroethyl)piperidin-1-yl]carbonyl}-2,3,4,5-tetrahydro-1,4-benzoxazepin-7-yl)-1H-imidazo[4,5-b]pyridin-2-yl]carbamate]
0.7 to 2.6 µM	1 to 3 µM	Cc1nc2ccc(-c3ccc4c(c3)CN(C(=O)N3CCN(c5ccc(F)cc5)CC3)CCO4)cc2[nH]1 [Compound 175, 4-{[4-(4-fluorophenyl)piperazin-1-yl]carbonyl}-7-(2-methyl-1H-benzimidazol-6-yl)-2,3,4,5-tetrahydro-1,4-benzoxazepine]
0.05 to 0.25 µM	0.2 to 0.5 µM	Cc1nc2ccc(-c3ccc4c(c3)CN(C(=O)N3CC[C@H](O)C[C@@H]3c3ccc(F)c(F)c3)CCO4)cc2[nH]1 (racemic) [Compound 140, (±)-(2R,4S)-2-(3,4-difluorophenyl)-1-{[7-(2-methyl-1H-benzimidazol-6-yl)-2,3-dihydro-1,4-benzoxazepin-4(5H)-yl]carbonyl}piperidin-4-ol]
≤ 0.05 µM	0.2 to 0.5 µM	Nc1nc2ccc(-c3ccc4c(c3)CN(C(=O)N3CCC(CF)CC3)CCO4)cc2[nH]1 [Compound 26, 6-(4-{[4-(fluoromethyl)piperidin-1-yl]carbonyl}-2,3,4,5-tetrahydro-1,4-benzoxazepin-7-yl)-1H-benzimidazol-2-amine]
